Laboratory results from paper PMC7200681, “The calcitonin-like system is an ancient regulatory system of biomineralization” (Scientific Reports, 2020).
Bridge positions count the residues as written; N and C are the ends.

Key:
[1] = test system: mussel CALCR-like (CALCRIa, CALCRIc, CALCRIIa, CALCRIIb and CALCRIIc); assay: Calcium mobilization, initial single-concentration test on the mussel receptors; format: cell-based; conditions: 10 µM peptide; % of carbachol (100uM) response; single experiment with six replicates (Supplementary Figure 7B)
Procedure: Mammalian cell cultures and transfections followed the methodology described by[89],[90]. Mammalian HEK293 cells (ECACC, UK) were used and they were maintained in complete Dulbecco’s modified Eagle’s medium (DMEM, 4.5 g/l glucose, 110 mg/l sodium pyruvate and L-glutamine, SIGMA-ALDRICH, Spain) supplemented with 10% sterile foetal bovine serum (FBS), 0.1% penicillin: streptomycin antibiotic mix (10,000 U:10 mg/ml, Sigma) and 250 μg /ml sterile filtered 1:100 amphotericin B solution (SIGMA-ALDRICH) in a humid 5% CO2 incubator (HERAEUS, Portugal) at 37 °C. […] Cell recovery was monitored daily and the medium was changed every two days until no cell death was observed. […]
(§1) HEK293 cells stably expressing five mussel receptors (CALCRIa, CALCRIc, CALCRIIa, CALCRIIb and CALCRIIc) were stimulated with the two mussel peptides and the vertebrate (human and salmon) calcitonins. Receptor activation was assessed in vitro by measuring two intracellular signalling pathways: a) production of cAMP and b) mobilization of calcium (Ca^2+). The cellular response was initially assessed using 10 μM of each peptide. […]
Stable cell lines expressing the mussel receptors were transiently co-transfected with the mitochondrial targeted apo-aequorin protein cloned in pcDNA3.1. […] Peptide potency was determined as the total area under the activation curve. Data was calculated as a % of the highest response (100% activation). […]

[2] = test system: mussel CALCRIIc; assay: Calcium mobilization assay (apoaequorin bioluminescence), dose-response, HEK 293 cells expressing mussel CALCRIIc; format: cell-based, Mytilus coruscus; conditions: HEK 293/apoaequorin, 1 μM to 0.01 nM
Source text: The complete sequence of the Mediterranean mussel CALCRIa was amplified using specific primers (Table 1) from cDNA of a tissue mixture (mantle, adductor muscle, gills, gonads) using a proofreading DNA polymerase (iProof BIORAD, Portugal) and cloned into the pGEMT-easy vector (PROMEGA, Spain). The Mediterranean mussel CALCRIIa transcript that was found in the mantle transcriptome was incomplete and lacked the N-terminus (by comparisons with the hard-shelled mussel homologue) and so the remaining sequence (from 1–393 bp) was deduced from the hard-shelled mussel homologue receptor and the receptor was synthesised and supplied by GENESCRIPT (USA). The complete transcripts for mussel CALCRIc, CALCRIIb and CALCRIIc were only found in the hard-shelled mussel mantle transcriptome and homologues were only found in the Mediterranean mussel genome as they were absent from the species mantle transcriptome and so they were also synthesised and supplied by GENESCRIPT (USA) using the hard-shelled mussel receptor sequences as template. […]
Mammalian cell cultures and transfections followed the methodology described by[89],[90]. […] Cell recovery was monitored daily and the medium was changed every two days until no cell death was observed. […]
as §1
Stable cell lines expressing the mussel receptors were transiently co-transfected with the mitochondrial targeted apo-aequorin protein cloned in pcDNA3.1. Two days after transfection cells were washed, counted and resuspended in 1 ml of DMEM /F12 Ham (without phenol red)/0.1% BSA supplemented with 2 µM coelenterazine (SIGMA-ALDRICH). […]

## H-CTWGGGMSDEMCSTVDIDEIQRSFQVIHDRNSP-NH2 (disulfide 1-12 (inferred)) [CALCIIa, Mediterranean mussel calcitonin-like mature peptide, 33 aa, synthesized with disulphide bond and C-terminal amidation]
[1]
  Stimulation of mussel CALCR-like, intracellular calcium (in words): elicited a high response
[2]
  Activation of mussel CALCRIIc in dose-response analysis (in words): exclusively activated
